Assay results from patent US20060057109A1 (priority 2002, published 2006).
Read-outs that look alike come from different tables or passages of the source.

Legend:
9L/P450 cells [1] = system: 9L/P450 cells
9L/P450 cells [2] = system: 9L/P450 cells; remark: listed apart in the source
9L/P450 cells [3] = settings: 1 × 8 hr 1 mM CPA
[4] = human, in vivo; cited from earlier work
9L/P450/p35-9 cells [5] = system: 9L/P450/p35-9 cells
Protocol: Cells were then cultured for up to 17 days following the initial drug treatment. […] Cells remaining on the plates at each indicated time point were stained with crystal violet. Data shown are mean+/−half the range for A595 values n=2 samples at each time point.
Growth Inhibition Assay: 9L/P450 and 9L/P450-derived cells lines were plated at 1.5×10^5 cells per well in 12 well dishes in 1.5 ml media unless indicated otherwise. […] Cells remaining on the plate at the indicated times were washed twice with cold PBS and then stained with crystal violet solution, as described previously (Schwartz and Waxman, Mol Pharmacol. 60:1268-1279. (2001)). The stain was eluted from the cells and the absorbance read at 595 nm to determine the relative protein content of each sample (Jounaidi et al., Cancer Res. 58:4391-4401 (1998)).

9L/LacZ bystander cells = experiment: Bystander cytotoxicity, colony formation assay; assay type: cell-based, rat
Protocol: The cytotoxicity conferred by 9L/P450 and 9L/P450/p35-9 cells on 9L/LacZ bystander cells was assayed using one of two protocols. […] Following this drug treatment cell survival was determined for each of the three cell lines (9L/P450, 9L/P450/p35-9 and 9L/LacZ) using a colony formation assay. In the experiment shown in FIGS. 6A and 6B (protocol 1) the 9L/LacZ bystander cells were plated on top of the 9L/P450 or 9L/P450/p35-9 cells, enabling the two cell populations to be in direct cell-cell contact. […]
Bystander Experiments. […] The cells were then grown in drug-free media for an additional 16 hr (i.e., 24 hr from the start of the second drug treatment), at which point the cells were trypsinized, collected, counted and replated at various densities in 6 well plates to allow for the growth of individual colonies, as follows: Drug-free control cells were replated in duplicate at 100, 150 and 250 cells/well. […] LacZ-positive colonies containing≧50 cells were counted. Cells were then re-stained with crystal violet and the total number of colonies was determined. The number of 9L/P450 or 9L/P450/p35-9 colonies on each plate was then calculated by subtracting number of the Lac Z-positive colonies from each sample. The colony efficiency (number of colonies/number of cells seeded) was then calculated for each treatment group. […]

9L/P450/p35-9 cells [6] = experiment: Colony formation assay after CPA treatment; assay type: cell-based, rat; settings: 1 × 8 hr 1 mM CPA
Text: Relative colony formation activities are shown in parenthesis.

[7] = system: caspase 8 and caspase 9 in CPA-treated 9L/P450 cells; experiment: Caspase 8 and caspase 9 activity in extracts of CPA-treated cells; assay type: cell-based, rat; settings: IAP expressed by retroviral transduction, cells treated with 1 mM CPA
Protocol: 9L/P450 cells were infected with retrovirus encoding the IAPs p35 or Survivin. […] Shown in FIG. 1B are the caspase 8 and caspase 9 activities of the individual cell lines (mean+/−half the range for n=2 separate experiments).
Caspase Activity Measurements: Caspase activities were assayed as described previously (Schwartz and Waxman, Mol Pharmacol. 60:1268-1279. (2001)). […] Floating and attached cells were collected, pooled, dissolved in lysis buffer (10 mM Hepes buffer (pH 7.4) containing 2 mM EDTA, 0.1% CHAPS detergent, 5 mM DTT, 350 ng/ml PMSF, 10 ng/ml pepstatin A, 10 ng/ml aprotinin, and 20 ng/ml leupeptin) and then subjected to three freeze-thaw cycles. Lysates were spun and the supernatant (cell extract) was assayed for caspase 3, 8 and 9 activities by incubation with caspase form-selective substrates: Ac-DEVD-AMC (Biomol; cat # P-411) for caspase 3 (Talanian et al., J Biol. Chem. 272:9677-9682 (1997); Thomberry et al., J Biol. Chem. 272:17907-17911 (1997)), LETD-AFC (BioRad; cat# 170-3186) for caspase 8 and Ac-LEHD-AFC (BioRad; cat# 170-3190) for caspase 9.

[8] = three 8 hr treatments with 1 mM CPA

Compound: CCCCS(=N)(=O)CCC(N)C(=O)O (stereo not shown) [BSO, buthionine sulfoximine]
- decrease in the cell's capacity to produce and release 4-OH-CPA into the culture media (9L/P450 cells [1]): 86%
- effect of BSO pretreatment on cell growth (9L/P450 cells [2]): no effect on cell growth
- cell survival (9L/P450 cells [2]; BSO pretreatment (50 μM for 24 hr), then 1 mM CPA for 72 hr): 13%

Compound: O=P1(N(CCCl)CCCl)NCCCO1 (stereo not shown) [CPA, cyclophosphamide]
- Relative colony formation activity (in parenthesis) (9L/P450 cells [3]; No Drug = 100): 1.1 ± 0.5
- Colonies per 10,000 cells (9L/P450 cells [3]; mean ± SD n=3): 77
- time to death of cells (9L/P450 cells [2]; 1 mM CPA continuously): 3 to 4 days
- cellular response to CPA in the absence of p35 (9L/P450 cells [2]; 1 mM CPA for 72 hr): cytotoxic response
- cell survival (9L/P450 cells [2]; 1 mM CPA for 72 hr, without BSO): 62%
- cell killing (9L/P450 cells [2]; single 8 hr CPA treatment): not sufficient to kill
- day by which all cells died (9L/P450 cells [2]; [8]): 6 to 9 days
- half-life [4]: 8 h
- time to death of cells (9L/P450/p35-9 cells [5]; 1 mM CPA continuously): 8 days
- cell killing (9L/P450/p35-9 cells [5]; single 8 hr CPA treatment): not sufficient to kill
- day by which all cells died (9L/P450/p35-9 cells [5]; [8]): ≤ 17 days
- bystander cell killing (9L/LacZ bystander cells; co-cultured with 9L/P450/p35-9 cells across a permeable membrane, second 8 hr CPA treatment): 70-80%
- bystander cell killing (9L/LacZ bystander cells; co-cultured with CPA-pretreated 9L/P450 cells across a permeable membrane, second CPA treatment): little or no bystander cell killing
- Relative colony formation activity (in parenthesis) (9L/P450/p35-9 cells [6]; No Drug = 100): 2.9 ± 0.9
- Colonies per 10,000 cells (9L/P450/p35-9 cells [6]; mean ± SD n=3): 150 ± 49

Compound: hIAP2: human IAP (inhibitor of apoptosis), myc-tagged cDNA, expressed by retroviral transduction
- inhibition of caspase activity [7]: less effective caspase inhibition
